# Data as given in ChEMBL document CHEMBL5614413, “Design, synthesis and biological evaluation of amphiphilic benzopyran derivatives as potent antibacterial agents against multidrug-resistant bacteria” (Eur J Med Chem, 2024).
# The source made the active and inactive calls. The calls are words filed in the database; no cut-off is given here.
# Experiments:
# [1] = tested on: Staphylococcus aureus; experiment: Bactericidal activity against methicillin-resistant Staphylococcus aureus ATCC 43300 by Mueller Hinton broth based assay; type: functional; details: time <= 6 hrs
# [2] = tested on: Staphylococcus aureus; experiment: (§1) Antibacterial activity against methicillin-resistant Staphylococcus aureus ATCC 43300 infected in sepsis mouse model assessed as reduction in number of surviving bacterial colonies in kidney at 10 mg/kg pre-infected with bacteria for 1 hrs followed by continuous compound administration at 12 hrs intervals for 2 days relative to control; type: functional; details: time 2 day
# [3] = tested on: Cell membrane; experiment: Disruption of cell membrane in methicilin-resistant Staphylococcus aureus ATCC 43300 assessed as appearance of collapsed cell membrane by scanning electron microscopic analysis; type: cell membranes
# [4] = tested on: Staphylococcus aureus; experiment: Bactericidal activity against methicillin-resistant Staphylococcus aureus ATCC 43300 in presence of 50% human serum by Mueller Hinton broth based assay; type: functional
# [5] = tested on: Staphylococcus aureus; experiment: Selectivity ratio of MBC for bactericidal activity against methicillin-resistant Staphylococcus aureus ATCC 43300 in presence of 50% human blood to MBC for bactericidal activity against methicillin-resistant Staphylococcus aureus ATCC 43300; type: functional
# [6] = tested on: Staphylococcus aureus; experiment: Antibacterial activity against erythromycin-susceptible Staphylococcus aureus ATCC 25923; type: functional
# [7] = tested on: Staphylococcus aureus; experiment: Antibacterial activity against methicillin-resistant Staphylococcus aureus ATCC 43300 at 1/2 times of MIC measured after 20 passage; type: functional, organism-based
# [8] = tested on: Staphylococcus aureus; experiment: as §1, with “in” for “in number of surviving”, “load” for “colonies”, “spleen” for “kidney”, “(reference value: 7.45 log10CFU/g)” for “relative to control”; type: functional; details: time 2 day
# [9] = tested on: Staphylococcus aureus; experiment: Antibacterial activity against penicillin-resistant Staphylococcus aureus ATCC 31007; type: functional
# [10] = tested on: Staphylococcus aureus; experiment: Bactericidal activity against methicillin-resistant Staphylococcus aureus ATCC 43300 in presence of 50% human plasma by Mueller Hinton broth based assay; type: functional
# [11] = tested on: Acinetobacter baumannii; experiment: Antibacterial activity against Acinetobacter baumannii ATCC 19606; type: functional
# [12] = tested on: Staphylococcus aureus; experiment: Disruption of preformed biofilm in methicillin-resistant Staphylococcus aureus ATCC 43300 assessed as eradication of biofilm at 64 microg/ml by crystal violet staining based analysis relative to control; type: functional; details: dose 64 µg/ml
# [13] = tested on: Cell membrane; experiment: Induction of cell membrane disruption in methicillin-resistant Staphylococcus aureus ATCC 43300 assessed as increase in DNA leakage; type: cell membranes
# [14] = tested on: Cell membrane; experiment: Induction of cell membrane disruption in methicillin-resistant Staphylococcus aureus ATCC 43300 assessed as increase in protein leakage; type: cell membranes
# [15] = tested on: Staphylococcus aureus; experiment: Bactericidal activity against methicillin-resistant Staphylococcus aureus ATCC 43300 assessed as reduction in bacterial growth; type: functional, organism-based
# [16] = tested on: Staphylococcus aureus; experiment: Selectivity ratio of MBC for bactericidal activity against methicillin-resistant Staphylococcus aureus ATCC 43300 in presence of 50% human serum to MBC for bactericidal activity against methicillin-resistant Staphylococcus aureus ATCC 43300; type: functional
# [17] = tested on: Staphylococcus aureus; experiment: Inhibition of biofilm formation in methicillin-resistant Staphylococcus aureus ATCC 43300; type: functional, organism-based; details: dose 2-32 µg/ml
# [18] = tested on: Staphylococcus aureus; experiment: as §1, with “in” for “in number of surviving”, “load” for “colonies”, “blood” for “kidney”, “(reference value: 3.69 log10CFU/ml)” for “relative to control”; type: functional; details: time 2 day
# [19] = Selectivity index, ratio of HC50 for hemolytic activity in sheep RBC to MIC for antibacterial activity against methicillin-resistant Staphylococcus aureus ATCC 43300; type: toxicity; details: sheep red blood cells (erythrocytes), read-out: Selectivity Index
# [20] = tested on: Cell membrane; experiment: Induction of cytoplasmic membrane depolarization in methicillin-resistant Staphylococcus aureus ATCC 43300 assessed as increase in fluorescence intensity by DiSC3(5) dye-based fluorescence assay; type: cell membranes
# [21] = tested on: Staphylococcus aureus; experiment: Bacteriostatic activity against methicillin-resistant Staphylococcus aureus ATCC 43300 assessed as inhibition of bacterial growth at 2 times of MIC measured after 24 hrs by time-kill kinetic analysis; type: functional, organism-based
# [22] = tested on: Staphylococcus aureus; experiment: as §1, with “blood” for “kidney”, “5” for “10”; type: functional; details: time 2 day
# [23] = tested on: Staphylococcus aureus; experiment: Inhibition of biofilm formation in methicillin-resistant Staphylococcus aureus ATCC 43300 at 8 microg/ml relative to control; type: functional
# [24] = tested on: Staphylococcus aureus; experiment: Antibacterial activity against methicillin-resistant Staphylococcus aureus ATCC 43300; type: functional
# [25] = tested on: Staphylococcus aureus; experiment: Drug resistance, ratio of MIC for methicillin-resistant Staphylococcus aureus ATCC 43300 after 20 passages to MIC for methicillin-resistant Staphylococcus aureus ATCC 43300 during first exposure; type: functional
# [26] = tested on: Staphylococcus aureus; experiment: Antibacterial activity against methicillin-resistant Staphylococcus aureus ATCC 43300 infected in sepsis mouse model assessed as reduction in pathological damages in spleen at 5 to 10 mg/kg pre-infected with bacteria for 1 hrs followed by continuous compound administration at 12 hrs intervals for 2 days by H and E staining based analysis; type: functional, organism-based; details: dose 5-10 mg/kg, time 2.0 day
# [27] = tested on: Staphylococcus aureus; experiment: Disruption of preformed biofilm in methicillin-resistant Staphylococcus aureus ATCC 43300 assessed as eradication of biofilm at 8 microg/ml by crystal violet staining based analysis relative to control; type: functional; details: dose 8 µg/ml
# [28] = tested on: Bacillus subtilis; experiment: Antibacterial activity against penicillin-susceptible Bacillus subtilis ATCC 9372; type: functional
# [29] = tested on: Staphylococcus aureus; experiment: Disruption of preformed biofilm in methicillin-resistant Staphylococcus aureus ATCC 43300 assessed as eradication of biofilm by crystal violet staining method; type: functional, organism-based; details: dose 2-64 µg/ml
# [30] = tested on: Staphylococcus aureus; experiment: Antibacterial activity against methicillin-resistant Staphylococcus aureus ATCC 43300 infected in sepsis mouse model assessed as decrease in TNF-alpha level in blood at 5 to 10 mg/kg pre-infected with bacteria for 1 hrs followed by continuous compound administration at 12 hrs intervals for 2 days; type: functional, organism-based; details: dose 5-10 mg/kg, time 2.0 day
structure (smiles),measurement,setting,value
CCCCN(CCCC)CCCNCCCOc1c(C(C)=O)ccc2c1C=CC(C)(CCC=C(C)C)O2 (stereo not given),MBC,[1],8 µg/mL
same,Activity,[2],99.9%
same,Activity,[3],Active
same,MBC,[4],16 µg/mL
same,selectivity ratio,[5],2
same,MIC,[6],2 µg/mL
same,Activity,[7],Active
same,Activity,[8],2.24 log10CFU/g
same,MIC,[9],4 µg/mL
same,MBC,[10],16 µg/mL
same,MIC,[11],2 µg/mL
same,Activity,[12],>40%
same,Activity,[13],Active
same,Activity,[14],Active
same,Activity,[15],Dose-Dependent Effect
same,selectivity ratio,[16],2
same,inhibition,[17],Dose-Dependent Effect
same,Activity,[18],1.46 log10CFU/ml
same,selectivity ratio,[19],65.6
same,Activity,[20],Dose-Dependent Effect
same,Activity,[21],Active
same,Activity,[22],91.8%
same,inhibition at 8 µg/mL,[23],37.2%
same,MIC,[24],2 µg/mL
same,Ratio,[25],2
same,Activity,[26],Active
same,Activity,[27],26.69%
same,MIC,[28],2 µg/mL
same,Activity,[29],Dose-Dependent Effect
same,Activity,[30],Active
